Experiments:
FHC cells [1] = assay: Apoptosis assay (annexin V flow cytometry), FHC; assay type: cell-based
Description: (§1) For cell cycle analysis, the cells were treated with Α3373 or 5-FU. The cells were labeled with 10 μΜ bromodeoxyuridine (BrdU) for 2 h. Subsequently, the cells were stained with 7-aminoactinomycin D (7-AAD, Invitrogen) and a fluorescein isothiocyanate (FITC)-conjugated anti-BrdU antibody (Invitrogen). Apoptotic cells were detected using an Annexin V-FITC Apoptosis Detection Kit (BD Biosciences). The cells were analyzed using BD FACSAria III (BD Biosciences), and data analysis was performed using FlowJo v10.0 (BD Biosciences).

FHC cells [2] = assay: Cell cycle analysis (BrdU/7-AAD flow cytometry), FHC; assay type: cell-based; settings: FHC normal fetal colonic mucosa cells
Description: as §1

DLD1 cells [3] = assay: Apoptosis assay (annexin V flow cytometry), DLD1; assay type: cell-based
Description: as §1

DLD1 cells [4] = assay: Cell cycle analysis (BrdU/7-AAD flow cytometry), DLD1; assay type: cell-based
Description: as §1

PLD1 = target: T1, PLD1 (Homo sapiens, UniProt Q13393); assay: Streptavidin pull-down assay, PLD1; assay type: binding; settings: 10 μM, various CRC cell lysates
T1 construct: endogenous in cells
T1 sequence (Q13393 1-1074): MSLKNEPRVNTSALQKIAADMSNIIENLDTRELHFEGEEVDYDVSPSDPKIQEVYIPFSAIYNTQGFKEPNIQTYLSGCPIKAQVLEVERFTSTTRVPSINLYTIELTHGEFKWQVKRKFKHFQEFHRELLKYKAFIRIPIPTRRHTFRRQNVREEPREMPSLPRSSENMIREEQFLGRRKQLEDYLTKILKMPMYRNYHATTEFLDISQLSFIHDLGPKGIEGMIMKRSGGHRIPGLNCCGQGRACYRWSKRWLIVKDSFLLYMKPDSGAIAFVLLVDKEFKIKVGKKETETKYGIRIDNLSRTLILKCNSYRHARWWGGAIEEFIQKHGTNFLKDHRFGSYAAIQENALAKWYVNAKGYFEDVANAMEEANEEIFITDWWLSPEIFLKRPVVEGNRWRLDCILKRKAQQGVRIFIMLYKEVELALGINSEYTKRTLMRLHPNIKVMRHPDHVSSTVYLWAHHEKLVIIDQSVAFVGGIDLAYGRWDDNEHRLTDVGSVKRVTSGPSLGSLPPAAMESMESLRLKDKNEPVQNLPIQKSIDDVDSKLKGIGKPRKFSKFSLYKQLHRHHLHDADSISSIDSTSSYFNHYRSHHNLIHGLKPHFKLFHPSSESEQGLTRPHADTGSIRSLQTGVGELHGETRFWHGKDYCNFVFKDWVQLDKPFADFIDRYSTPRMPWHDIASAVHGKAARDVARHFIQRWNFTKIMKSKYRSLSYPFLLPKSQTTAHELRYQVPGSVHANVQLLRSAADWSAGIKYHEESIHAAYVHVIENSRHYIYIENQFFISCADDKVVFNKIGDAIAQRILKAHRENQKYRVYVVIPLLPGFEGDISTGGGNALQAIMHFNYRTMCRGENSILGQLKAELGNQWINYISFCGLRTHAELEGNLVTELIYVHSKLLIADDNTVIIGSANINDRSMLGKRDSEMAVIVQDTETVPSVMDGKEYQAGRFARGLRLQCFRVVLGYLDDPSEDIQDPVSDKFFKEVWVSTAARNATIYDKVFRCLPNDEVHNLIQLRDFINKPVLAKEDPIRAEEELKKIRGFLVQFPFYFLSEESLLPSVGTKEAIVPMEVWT
Description: Cells were lysed in passive lysis buffer (Promega). Cell lysates were incubated with biotinylated chemicals (A4333, 10 μM) or biotin (10 μM) at 37 °C for 1 h and treated with streptavidin beads (Thermo Scientific) at 20 °C for 1 h. After removing free biotinylated chemicals by washing with PBS, the samples were subjected to SDS‒PAGE followed by immunoblotting with an antibody against PLD[20].

PLD [5] = assay: PLD activity assay in DLD1 cells; assay type: cell-based; settings: compared to unsubstituted congener
Description: (§2) Cells were labeled with [H^3] myristic acid, and PLD activity was assessed by measuring the formation of [H^3] phosphatidylbutanol, which is the product of PLD-mediated transphosphatidylation, in the presence of 1-butanol, as previously described.

PLD [6] = assay: PLD activity assay in HCT 116 cells; assay type: cell-based; settings: at 10 μM (Fig. 1c)
Description: as §2

SMILES: O=c1[nH]cc(F)c(=O)[nH]1 [Compound 5-FU, 5-fluorouracil, reference compound]
- apoptosis of FHC cells, in words (FHC cells [1]): increased the apoptosis of both CRC and FHC cells
- cell cycle / S phase in FHC cells, in words (FHC cells [2]): decreased the S phase population
- apoptosis of CRC cells, in words (DLD1 cells [3]): increased the apoptosis of both CRC and FHC cells
- cell cycle / proliferation of CRC cells, in words (DLD1 cells [4]): decreased the S phase population

SMILES: O=C(CCCC[C@@H]1SC[C@@H]2NC(=O)N[C@@H]21)NNC(=O)c1ccc2[nH]c(C(=O)Nc3cc(C(F)(F)F)cc(C(F)(F)F)c3)cc2c1 [Compound A4333]
- interaction with PLD1 (pull-down) (PLD1): interacted with PLD1
- PLD inhibition, in words (PLD [5]): still potent for PLD inhibition

SMILES: C[C@@H](CN1CCC(n2c(=O)[nH]c3cc(Cl)ccc32)CC1)NC(=O)c1ccc2ccccc2c1 [VU0155069, reference compound]
- PLD activity remained (PLD [6]): 30.4%

— PMC9535023, “Inhibition of phospholipase D1 induces immunogenic cell death and potentiates cancer immunotherapy in colorectal cancer” (Experimental & Molecular Medicine, 2022)
